Experimental data as given in publication PMC6753678, “Fueling Open Innovation for Malaria Transmission-Blocking Drugs: Hundreds of Molecules Targeting Early Parasite Mosquito Stages” (Frontiers in Microbiology, 2019).
Read-outs that look alike come from different tables or passages of the source.

How the values were obtained:
[1] = test system: 3D7-strain P. falciparum asexual parasites; test: P. falciparum asexual growth inhibition assay (Pf GIA); format: cell-based, Plasmodium falciparum; details: dose response confirmation; read-out: Pf asexual growth inhibition assays IC50
Protocol: The asexual activity of active compounds was tested in dose response with parasite lactate dehydrogenase (LDH) activity used as a readout of parasite viability as described in [Gamo et al. (2010)]. Briefly, 3D7-strain P. falciparum asexual parasites were diluted to 0.25% parasitemia, 2% hematocrit in culture medium composed of RPMI medium with 25 mM HEPES, 2% D-sucrose, 0.3% L-glutamine, 150 μM hypoxanthine plus 5% albumax. 25 μl of parasite inoculum was then dispensed into each well of a 384 well plate containing test compounds and positive (50 μM chloroquine) and negative (DMSO) controls. Plates were incubated for 72 h at 37°C in a 5% CO2, 5%O2, 90% N2 environment before being frozen at −70°C. Plates were then thawed and 70 μl of reaction mix (143 mM sodium L-lactate, 143 mM 3-acetyl pyridine adenine dinucleotide, […] Nitro Blue tetrazolium chloride, […] diaphorase (2.83 U/ml), 0.7% Tween 20, 100 mM Tris–HCl pH 8.0) was added to each well using a Multidrop Combi automated dispenser. Plates were shaken to mix and then absorbance at 650 nm was measured after 10 min incubation at room temperature. Percent inhibition of asexual growth was then calculated with respect to positive and negative controls. Data presented is the mean of three independent biological replicates.

HepG2 cells = test: HepG2 cytotoxicity assay; details: for IC50: read-out: HepG2 cytotoxicity assay IC50, dose response confirmation; for Pb ODA (this manuscript) HepG2 cytoxicity: HepG2 cytotoxicity listed with the Pb ODA data set (this manuscript)
Protocol: Briefly, HepG2 cells were seeded onto compound-treated 384 well plates at a density of 2,500 cells per well in Minimal Essential Medium (MEM) plus 10% fetal bovine serum and 1% non-essential amino acids solution (NEAA). Cells were incubated with test compounds or 50 μM doxorubicin (positive) and DSMO (negative) controls at 37°C for 48 h in a humidified 5% CO2 atmosphere. […] Cell viability was then measured in a fluorescent plate reader and percent inhibition calculated with respect to positive and negative controls.

[2] = test system: P. berghei ookinete development; details: for % inhibition, Replicate A / % inhibition, Replicate B: primary screen at 1 μM
[3] = unified HepG2 value across the three screens
[4] = read-out: Pb ODA IC50, this manuscript
[5] = read-out: Pb Ookinete development assay IC50, dose response confirmation
[6] = read-out: Pb ODA (this manuscript) IC50, P. berghei ookinete development assay, this manuscript

Row | SMILES | IC50 [1] [nM] | IC50 (HepG2 cells) [nM] | Unified cytotox (HepG2 cells; [3]) [µM] | Is compound selective in assay? Pb ODA active? ([2]; 1: YES, 0: NO) | % inhibition, Replicate A [2] [%] | % inhibition, Replicate B [2] [%] | IC50 [2, 4] [nM] | IC50 [2, 5] [nM] | Pb ODA (this manuscript) HepG2 cytoxicity (HepG2 cells) [µM] | Is compound selective in assay? Pb ODA active? [2] | IC50 [2, 6] [nM] | HepG2 cytoxicity (Pb ODA, this manuscript) (HepG2 cells; HepG2, this manuscript) [µM] | Unified cytotox (HepG2 cells; HepG2 values of the three screens unified) [µM]
1 | O=C(Nc1ccccc1)Nc1ccc(-n2ccc(C(F)(F)F)n2)cc1 [TCMDC-123480] | 419 | 100000 | 100.00 | 1 (1: YES) | 42.19 | 52.26 | 1900 | 1900 | – | – | – | – | –
2 | O=c1c2c([nH]c3cc(Cl)ccc13)CCCC2 [TCMDC-123504] | 824 | 100000 | – | – | 114.67 | 120.99 | – | 1240 | 100.00 | 1 (key: 1: YES; 0: NO) | 1240 | – | –
3 | O=C(NCC1CCCCC1)c1cc(=O)c2ccccc2o1 [TCMDC-123621] | 563 | 100000 | 100.00 | 1 (1: YES) | 49.08 | 59.87 | – | 1040 | – | – | – | – | –
4 | CC(=O)Nc1cccc(Nc2c3ccccc3nc3ccccc23)c1 [TCMDC-123741] | 1470 | 12300 | 12.30 | 1 (1: YES) | 54.87 | 64.71 | 690 | 686 | – | – | – | – | –
5 | CSc1ccc(C=CC(=O)NC(=O)c2ccccc2O)cc1 [TCMDC-123758] | 179 | 73300 | 73.28 | 1 (1: YES) | 53.84 | 38.37 | 530 | 526 | – | – | – | – | –
6 | Cc1cc(C(=O)OCC(=O)Nc2c(C)n(C)n(-c3ccccc3)c2=O)c(C)n1-c1ccc(F)cc1 [TCMDC-123794] | 43 | 19500 | 19.50 | 1 (1: YES) | 88.45 | 92.59 | – | 210 | – | – | – | – | –
7 | Cc1nc(/N=C(\N)NC(=O)NC2CCCCC2)nc2ccccc12 [TCMDC-123808] | 1.7 | 35500 | – | – | 57.73 | 102.93 | – | 1080 | 35.48 | 1 (key: 1: YES; 0: NO) | 1080 | – | –
8 | Cc1cc(NC(c2ccc(Cl)cc2)c2ccc3cccnc3c2O)no1 (stereo not shown) [TCMDC-123828] | 2550 | 1380 | 1.38 | 0 (0: NO) | 41.30 | 61.82 | 3020 | 3020 | – | – | – | – | –
9 | Cc1sc2ncnc(Sc3nc4ccccc4[nH]3)c2c1C [TCMDC-123835] | 748 | 100000 | 100.00 | 1 (1: YES) | 69.92 | 40.18 | 920 | 919 | – | – | – | – | –
10 | CCOC(=O)c1c[nH]c2c(ccc3ccccc32)c1=O [TCMDC-123857] | 443 | 100000 | 100.00 | 1 (1: YES) | 88.11 | 83.13 | 560 | 562 | – | – | – | – | –
11 | Cc1ccc(C2=NNC3(S2)C(=O)N(C)c2ccccc23)cc1 (stereo not shown) [TCMDC-123863] | 3270 | 56900 | 56.89 | 1 (1: YES) | 93.73 | 58.53 | 2440 | 2440 | – | – | – | – | –
12 | CN(C)c1ccc(C=Cc2nc(=O)c3ccccc3o2)cc1 [TCMDC-123870] | 41 | 100000 | – | – | 83.52 | 65.62 | – | 155 | 100.00 | 1 (key: 1: YES; 0: NO) | 150 | – | –
13 | O=C(c1cccs1)N1CCN(c2ccc([N+](=O)[O-])c(NC3CC3)c2)CC1 [TCMDC-123877] | 2660 | 100000 | 100.00 | 1 (1: YES) | 53.49 | 54.36 | 1700 | 1700 | – | – | – | – | –
14 | O=c1nc(C=Cc2ccc(Br)cc2)oc2ccccc12 [TCMDC-123878] | 1730 | 100000 | – | – | 55.97 | 32.93 | – | 2720 | 100.00 | 1 (key: 1: YES; 0: NO) | 2720 | – | –
15 | Br.CC(CCON1C(N)=NC(N)=NC1(C)C)c1ccc(Cl)c(Cl)c1 (stereo not shown) [TCMDC-123922] | < 0.2 | 1 | – | 0 (0: NO) | 47.79 | 55.73 | 5760 | 5760 | – | – | – | 0.001 | 0.001
16 | FC(F)(F)c1ccc(Nc2nnnc3ccccc23)cc1 [TCMDC-125603] | 9 | – | – | – | 80.24 | 96.04 | – | 1260 | – | – | – | – | –
17 | NS(=O)(=O)c1cncc(-c2ccc3nccc(-c4cn[nH]c4)c3n2)c1 [TCMDC-134293] | 283 | – | – | – | 59.71 | 54.48 | – | 2160 | – | – | – | – | –
18 | Cc1nc(C)c(-c2ccc(Oc3ccc(Cl)cc3Cl)cc2)c(O)c1Br [TCMDC-137533] | 165 | – | – | – | 69.44 | 92.36 | – | 203 | – | – | – | – | –
19 | COc1ccc2nccc([C@@H](O)CN3CCC(NCc4cc5cccc6c5n(c4=O)CCC6)CC3)c2c1.O=C(O)C(=O)O [TCMDC-140735] | – | 16200 | 16.22 | 0 (0: NO) | 13.85 | 52.08 | 3430 | 3430 | – | – | – | – | –
20 | CC(C)(CN)c1nc(-c2ccc(Cl)c(O)c2)c(-c2ccnc(N)n2)[nH]1 [TCMDC-141019] | 863 | – | – | – | 10.20 | 56.84 | – | 1720 | – | – | – | – | –
